Assay results from patent US20140228287A1, “1-[(3-CYANO-PYRIDIN-2-YL)METHYL]-3-METHYL-7-(2-BUTYN-1-YL)-8-[3-(R)-AMINO-PIPERIDIN-1-YL]-AXANTHINE FOR THE TREATMENT OF A METABOLIC DISORDER OF A PREDOMINANTLY CARNIVOROUS NON-HUMAN ANIMAL” (BOEHRINGER INGELHEIM VETMEDICA GMBH, priority 2010, published 2014).
Counter-ions that a name gives are not always drawn. Like-named read-outs stand apart in the source and are kept apart here.

How the values were obtained:
DPP IV [1] = molecular target: DPP IV (Homo sapiens, UniProt P27487); assay: In vitro DPP IV inhibition; type: biochemical; settings: for IC50: in vitro
Sequence of DPP IV (Homo sapiens, UniProt P27487) (P27487 whole entry, species assumed): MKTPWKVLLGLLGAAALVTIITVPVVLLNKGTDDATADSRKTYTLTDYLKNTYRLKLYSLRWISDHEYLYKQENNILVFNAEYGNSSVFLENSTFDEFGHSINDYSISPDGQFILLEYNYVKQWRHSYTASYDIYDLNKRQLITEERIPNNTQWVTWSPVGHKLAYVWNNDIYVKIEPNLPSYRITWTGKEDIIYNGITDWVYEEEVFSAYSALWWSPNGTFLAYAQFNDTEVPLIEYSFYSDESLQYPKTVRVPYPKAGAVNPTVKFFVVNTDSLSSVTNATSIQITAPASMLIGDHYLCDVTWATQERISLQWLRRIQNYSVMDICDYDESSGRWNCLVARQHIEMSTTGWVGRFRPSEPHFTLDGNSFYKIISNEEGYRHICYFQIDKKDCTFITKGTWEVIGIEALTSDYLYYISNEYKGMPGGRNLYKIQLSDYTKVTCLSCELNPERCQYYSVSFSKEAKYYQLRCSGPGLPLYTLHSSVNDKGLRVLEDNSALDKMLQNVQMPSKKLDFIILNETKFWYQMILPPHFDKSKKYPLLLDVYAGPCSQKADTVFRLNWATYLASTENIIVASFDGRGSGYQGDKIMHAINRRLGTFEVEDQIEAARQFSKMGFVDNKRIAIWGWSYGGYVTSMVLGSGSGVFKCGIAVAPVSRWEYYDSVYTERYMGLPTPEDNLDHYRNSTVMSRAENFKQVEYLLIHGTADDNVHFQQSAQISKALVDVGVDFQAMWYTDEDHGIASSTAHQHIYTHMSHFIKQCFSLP
Protocol: Studies were also conducted to assess the inhibitory effect of this compound on plasma DPP IV activity in several species.

plasma DPP IV [2] = molecular target: T1, plasma DPP IV (Rattus norvegicus, UniProt P14740); assay: Plasma DPP IV activity after oral administration, rat; type: in vivo; settings: for inhibition at 1 mg/kg: 1 mg/kg oral; for ED50: oral, read-out: ED50 for inhibition of plasma DPP IV activity
T1 construct: from tissue
T1 sequence (P14740 37-767 limits assumed): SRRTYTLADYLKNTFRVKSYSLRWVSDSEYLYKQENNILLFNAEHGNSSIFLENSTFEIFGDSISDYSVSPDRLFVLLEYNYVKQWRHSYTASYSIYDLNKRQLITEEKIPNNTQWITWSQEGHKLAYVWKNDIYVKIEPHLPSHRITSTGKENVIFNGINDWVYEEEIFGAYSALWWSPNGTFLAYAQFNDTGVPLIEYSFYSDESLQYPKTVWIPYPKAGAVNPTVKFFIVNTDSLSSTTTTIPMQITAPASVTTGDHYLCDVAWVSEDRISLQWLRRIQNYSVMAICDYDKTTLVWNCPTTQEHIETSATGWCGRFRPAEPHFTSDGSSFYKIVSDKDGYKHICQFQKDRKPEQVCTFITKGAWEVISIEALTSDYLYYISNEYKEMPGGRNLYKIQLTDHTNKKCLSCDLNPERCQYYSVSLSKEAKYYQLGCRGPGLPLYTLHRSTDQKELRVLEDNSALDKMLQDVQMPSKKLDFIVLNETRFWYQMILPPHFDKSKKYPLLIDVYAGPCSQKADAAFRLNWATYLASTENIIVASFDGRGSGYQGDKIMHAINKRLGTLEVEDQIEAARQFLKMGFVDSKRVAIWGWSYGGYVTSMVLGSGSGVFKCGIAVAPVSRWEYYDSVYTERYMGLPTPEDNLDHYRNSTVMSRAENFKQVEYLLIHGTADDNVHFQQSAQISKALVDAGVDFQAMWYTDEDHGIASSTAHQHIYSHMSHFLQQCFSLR
Protocol: (§1) The effect of 1-[(3-cyano-pyridin-2-yl)methyl]-3-methyl-7-(2-butyn-1-yl)-8-[3-(R)-amino-piperidin-1-yl]-xanthine on plasma DPP IV activity after oral administration was investigated in the rat, the Beagle dog and the Rhesus monkey. These investigations were conducted as described in the following.
Male HanWistar rats (Crl:WI(Han)) were obtained from Charles River (Germany). Animals were fed ad libitum with a standard pelleted diet (Diet No. 3438, Provimi Kliba, Switzerland) and had free access to water. Animals were housed in groups with a 12 h/12 h light/dark cycle (lights out between 6 p.m. and 6 a.m.). The rats were used for the experiment at a body weight of about 260 g. Such freely fed male HanWistar rats (n=5 per group) were administered oral doses of vehicle or 1-[(3-cyano-pyridin-2-yl)methyl]-3-methyl-7-(2-butyn-1-yl)-8-[3-(R)-amino-piperidin-1-yl]-xanthine monohydrochloride at 0.1, 0.3, 1, and 3 mg/kg body weight. Blood samples were drawn from the retrobulbal venous plexus under isoflurane anaesthesia. Blood was collected in EDTA tubes prior to administration of vehicle or 1-[(3-cyano-pyridin-2-yl)methyl]-3-methyl-7-(2-butyn-1-yl)-8-[3-(R)-amino-piperidin-1-yl]-xanthine monohydrochloride and subsequently at 0.5, 1, 2, 3, 4, 7, and 24 hour time points post dose. Plasma was prepared following blood collection and frozen for determination of DPP-IV activity.

DPP 9 = DPP 9 (Homo sapiens, UniProt Q86TI2); assay: In vitro selectivity, human proteases: DPP 9; type: biochemical
Sequence of DPP 9 (Q86TI2 whole entry): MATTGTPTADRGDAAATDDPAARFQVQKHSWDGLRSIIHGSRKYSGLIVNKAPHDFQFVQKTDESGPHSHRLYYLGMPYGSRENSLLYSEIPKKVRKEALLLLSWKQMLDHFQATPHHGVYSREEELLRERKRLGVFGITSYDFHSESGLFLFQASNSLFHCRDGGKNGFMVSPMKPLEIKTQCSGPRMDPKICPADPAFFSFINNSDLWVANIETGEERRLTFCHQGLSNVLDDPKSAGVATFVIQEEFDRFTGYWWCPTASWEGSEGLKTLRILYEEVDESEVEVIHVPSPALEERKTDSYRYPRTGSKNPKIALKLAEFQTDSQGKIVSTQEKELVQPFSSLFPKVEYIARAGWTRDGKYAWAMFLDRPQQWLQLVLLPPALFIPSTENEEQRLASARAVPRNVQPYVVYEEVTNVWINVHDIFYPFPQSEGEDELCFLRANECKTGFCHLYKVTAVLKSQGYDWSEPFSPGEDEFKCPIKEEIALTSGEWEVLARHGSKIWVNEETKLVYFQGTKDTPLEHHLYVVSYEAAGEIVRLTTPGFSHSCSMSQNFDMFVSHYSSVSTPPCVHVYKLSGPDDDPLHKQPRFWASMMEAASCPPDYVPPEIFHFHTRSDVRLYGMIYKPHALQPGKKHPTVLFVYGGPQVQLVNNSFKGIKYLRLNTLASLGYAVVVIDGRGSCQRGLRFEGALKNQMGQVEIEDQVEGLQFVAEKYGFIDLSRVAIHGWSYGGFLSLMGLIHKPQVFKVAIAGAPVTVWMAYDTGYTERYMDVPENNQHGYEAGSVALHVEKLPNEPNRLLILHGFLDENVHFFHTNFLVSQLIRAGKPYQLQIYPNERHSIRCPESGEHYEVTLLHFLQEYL
Source text: (§2) In order to determine the in vitro selectivity of 1-[(3-cyano-pyridin-2-yl)methyl]-3-methyl-7-(2-butyn-1-yl)-8-[3-(R)-amino-piperidin-1-yl]-xanthine, the ability of this compound to inhibit a number of human proteases was investigated as described in Thomas et al. (2008), J. Pharmacol. Exp. Ther., vol. 325, p. 175-182, chapter In vitro DPP-4 Inhibition Assay, p. 176.

trypsin = assay: In vitro selectivity, human proteases: trypsin; type: biochemical; settings: up to 100 μM
Source text: as §2

DPP IV [3] = molecular target: T2, DPP IV (Felis catus, UniProt Q9N2I7); assay: DPP IV activity in obese/non-obese cats, 7 days once daily dosing; type: in vivo, cat; settings: 9 mg daily, percent of 0 h
T2 construct: Blood samples for the determination of this compound and DPP IV activity were collected; from tissue; host or cells: plasma of domestic short hair / purpose-bred cats dosed orally
T2 sequence (Q9N2I7 38-765 limits assumed): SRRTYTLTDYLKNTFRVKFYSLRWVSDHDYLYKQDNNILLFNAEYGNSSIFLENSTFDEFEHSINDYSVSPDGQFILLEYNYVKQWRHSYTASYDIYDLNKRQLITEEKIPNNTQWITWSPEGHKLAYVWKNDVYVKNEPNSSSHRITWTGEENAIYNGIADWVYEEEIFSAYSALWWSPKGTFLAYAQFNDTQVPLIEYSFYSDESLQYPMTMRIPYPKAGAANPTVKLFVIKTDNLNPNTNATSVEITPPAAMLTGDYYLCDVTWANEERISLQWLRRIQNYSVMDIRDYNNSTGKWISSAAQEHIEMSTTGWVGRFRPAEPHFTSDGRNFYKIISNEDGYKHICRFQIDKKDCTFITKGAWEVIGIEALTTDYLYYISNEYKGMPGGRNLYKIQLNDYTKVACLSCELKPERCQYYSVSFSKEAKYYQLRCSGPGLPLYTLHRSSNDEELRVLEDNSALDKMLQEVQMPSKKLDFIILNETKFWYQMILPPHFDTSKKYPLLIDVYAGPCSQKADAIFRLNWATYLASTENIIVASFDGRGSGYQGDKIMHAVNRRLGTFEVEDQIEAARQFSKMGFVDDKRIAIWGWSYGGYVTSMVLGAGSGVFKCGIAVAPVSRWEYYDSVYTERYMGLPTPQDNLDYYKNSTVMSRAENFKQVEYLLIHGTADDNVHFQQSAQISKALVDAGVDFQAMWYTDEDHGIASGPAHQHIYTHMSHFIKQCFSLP
Source text: The aim of this exploratory, randomized, placebo controlled crossover study was to investigate the effect of 1-[(3-cyano-pyridin-2-yl)methyl]-3-methyl-7-(2-butyn-1-yl)-8-[3-(R)-amino-piperidin-1-yl]-xanthine monohydrochloride on DPP IV activity and on glucose concentrations in obese and non-obese cats after repeated oral administration over seven days.
Fourteen clinically healthy male and female (8 obese and 6 non-obese) purpose-bred cats were used in this study. The animals were randomly allocated to two groups of cats, obese and non-obese, and treated in a cross-over design with 9 mg 1-[(3-cyano-pyridin-2-yl)methyl]-3-methyl-7-(2-butyn-1-yl)-8-[3-(R)-amino-piperidin-1-yl]-xanthine monohydrochloride or placebo, once daily for 7 days, with a following wash-out period of 21 days.
Cats were fed once daily 40 min after administration of the compound or the placebo, respectively.
In parallel, DPP IV activity was assessed as above.

plasma DPP IV [4] = assay: Plasma DPP IV activity after oral administration, Rhesus monkey; type: in vivo; settings: 1 mg/kg oral, 24 hours post dose
Protocol: as §1
Overnight fasted Rhesus monkeys (n=4; 2 males and 2 females) were administered oral doses of 1-[(3-cyano-pyridin-2-yl)methyl]-3-methyl-7-(2-butyn-1-yl)-8-[3-(R)-amino-piperidin-1-yl]-xanthine monohydrochloride at 1 mg/kg bw. Blood samples were drawn from a butterfly that was inserted into a forearm vein of restrained monkeys. Blood was collected in EDTA tubes prior to administration of 1-[(3-cyano-pyridin-2-yl)methyl]-3-methyl-7-(2-butyn-1-yl)-8-[3-(R)-amino-piperidin-1-yl]-xanthine monohydrochloride and subsequently at 0.5, 1, 2, 4, 8, 24, 48, and 72 hour time points post dose. Plasma was prepared following blood collection and frozen for determination of DPP-IV activity.

For `CC#CCn1c(N2CCC[C@@H](N)C2)nc2c1c(=O)n(Cc1ncccc1C#N)c(=O)n2C` [1-[(3-cyano-pyridin-2-yl)methyl]-3-methyl-7-(2-butyn-1-yl)-8-[3-(R)-amino-piperidin-1-yl]-xanthine monohydrochloride], the IC50 (DPP IV [1]; GLP-1 as substrate) was roughly 0.18 nM, the IC50 (DPP IV [1]; dipeptide artificial substrate) was roughly 1 nM and the “mode of DPP IV inhibition” value (DPP IV [1]; mechanistic studies) was “competitive and reversible inhibitor”. The inhibition at 1 mg/kg (plasma DPP IV [2]; 7 hours post dose) was 86%, the inhibition at 1 mg/kg (plasma DPP IV [2]; 24 hours post dose) was 64% and the ED50 (plasma DPP IV [2]; 7 h post dose) was 0.4 mg/kg. The ED50 (plasma DPP IV [2]; 24 h post dose) was 0.6 mg/kg, the IC50 (DPP 9) was greater than 10000 nM and the “inhibitory effect on trypsin” value (trypsin) was “did not exert any inhibitory effect”. It also gave an activity at 9 mg (DPP IV [3]; Non-obese cats (n = 6), 1 h, read-out: DPP-IV activity %, Max) of 25.4%, an activity at 9 mg (DPP IV [3]; Non-obese cats (n = 6), 1 h, read-out: DPP-IV activity %, Mean ± STD) of 13.8 ± 5.8% and an activity at 9 mg (DPP IV [3]; Non-obese cats (n = 6), 1 h, read-out: DPP-IV activity %, Median) of 11.3%. The activity at 9 mg (DPP IV [3]; Non-obese cats (n = 6), 1 h, read-out: DPP-IV activity %, Min) was 8.4%, the activity at 9 mg (DPP IV [3]; Non-obese cats (n = 6), 6 h, read-out: DPP-IV activity %, Max) was 25% and the activity at 9 mg (DPP IV [3]; Non-obese cats (n = 6), 6 h, read-out: DPP-IV activity %, Mean ± STD) was 14.4 ± 5.7%. For the same compound, the activity at 9 mg (DPP IV [3]; Non-obese cats (n = 6), 6 h, read-out: DPP-IV activity %, Median) was 11.4%, the activity at 9 mg (DPP IV [3]; Non-obese cats (n = 6), 6 h, read-out: DPP-IV activity %, Min) was 9.5% and the activity at 9 mg (DPP IV [3]; Non-obese cats (n = 6), 24 h, read-out: DPP-IV activity %, Max) was 45.1%. For the same compound, the activity at 9 mg (DPP IV [3]; Non-obese cats (n = 6), 24 h, read-out: DPP-IV activity %, Mean ± STD) was 20.1 ± 12%, the activity at 9 mg (DPP IV [3]; Non-obese cats (n = 6), 24 h, read-out: DPP-IV activity %, Median) was 15.3% and the activity at 9 mg (DPP IV [3]; Non-obese cats (n = 6), 24 h, read-out: DPP-IV activity %, Min) was 8.6%. For the same compound, the activity at 9 mg (DPP IV [3]; Non-obese cats (n = 6), 72 h, read-out: DPP-IV activity %, Max) was 27.9%, the activity at 9 mg (DPP IV [3]; Non-obese cats (n = 6), 72 h, read-out: DPP-IV activity %, Mean ± STD) was 18.2 ± 6% and the activity at 9 mg (DPP IV [3]; Non-obese cats (n = 6), 72 h, read-out: DPP-IV activity %, Median) was 18.9%. The activity at 9 mg (DPP IV [3]; Non-obese cats (n = 6), 72 h, read-out: DPP-IV activity %, Min) was 8.5%, the activity at 9 mg (DPP IV [3]; Non-obese cats (n = 6), 168 h, read-out: DPP-IV activity %, Max) was 23.5% and the activity at 9 mg (DPP IV [3]; Non-obese cats (n = 6), 168 h, read-out: DPP-IV activity %, Mean ± STD) was 17.4 ± 4.7%. The activity at 9 mg (DPP IV [3]; Non-obese cats (n = 6), 168 h, read-out: DPP-IV activity %, Median) was 18.2%, the activity at 9 mg (DPP IV [3]; Non-obese cats (n = 6), 168 h, read-out: DPP-IV activity %, Min) was 10.6% and the activity at 9 mg (DPP IV [3]; Obese cats (n = 8), 1 h, read-out: DPP-IV activity %, Max) was 17.5%. The activity at 9 mg (DPP IV [3]; Obese cats (n = 8), 1 h, read-out: DPP-IV activity %, Mean ± STD) was 12.1 ± 4%, the activity at 9 mg (DPP IV [3]; Obese cats (n = 8), 1 h, read-out: DPP-IV activity %, Median) was 11.1% and the activity at 9 mg (DPP IV [3]; Obese cats (n = 8), 1 h, read-out: DPP-IV activity %, Min) was 7.5%. It also gave an activity at 9 mg (DPP IV [3]; Obese cats (n = 8), 6 h, read-out: DPP-IV activity %, Max) of 20%, an activity at 9 mg (DPP IV [3]; Obese cats (n = 8), 6 h, read-out: DPP-IV activity %, Mean ± STD) of 11.9 ± 3.9% and an activity at 9 mg (DPP IV [3]; Obese cats (n = 8), 6 h, read-out: DPP-IV activity %, Median) of 10.5%. The activity at 9 mg (DPP IV [3]; Obese cats (n = 8), 6 h, read-out: DPP-IV activity %, Min) was 7.4%, the activity at 9 mg (DPP IV [3]; Obese cats (n = 8), 24 h, read-out: DPP-IV activity %, Max) was 26.5% and the activity at 9 mg (DPP IV [3]; Obese cats (n = 8), 24 h, read-out: DPP-IV activity %, Mean ± STD) was 17 ± 5.2%. It also gave an activity at 9 mg (DPP IV [3]; Obese cats (n = 8), 24 h, read-out: DPP-IV activity %, Median) of 15.4%, an activity at 9 mg (DPP IV [3]; Obese cats (n = 8), 24 h, read-out: DPP-IV activity %, Min) of 11.4% and an activity at 9 mg (DPP IV [3]; Obese cats (n = 8), 72 h, read-out: DPP-IV activity %, Max) of 23.9%. The activity at 9 mg (DPP IV [3]; Obese cats (n = 8), 72 h, read-out: DPP-IV activity %, Mean ± STD) was 18.4 ± 4.4%, the activity at 9 mg (DPP IV [3]; Obese cats (n = 8), 72 h, read-out: DPP-IV activity %, Median) was 18.5% and the activity at 9 mg (DPP IV [3]; Obese cats (n = 8), 72 h, read-out: DPP-IV activity %, Min) was 12.2%. The activity at 9 mg (DPP IV [3]; Obese cats (n = 8), 168 h, read-out: DPP-IV activity %, Max) was 39.8%, the activity at 9 mg (DPP IV [3]; Obese cats (n = 8), 168 h, read-out: DPP-IV activity %, Mean ± STD) was 19.9 ± 9% and the activity at 9 mg (DPP IV [3]; Obese cats (n = 8), 168 h, read-out: DPP-IV activity %, Median) was 19.2%. For the same compound, the activity at 9 mg (DPP IV [3]; Obese cats (n = 8), 168 h, read-out: DPP-IV activity %, Min) was 8.6% and the “inhibition of plasma DPP IV activity” value (plasma DPP IV [4]) was 54%.
